Results taken from article PMC12881670, “Investigation into ligand selectivity and bias at the formyl peptide receptor family” (The Journal of Pharmacology and Experimental Therapeutics, 2025).

Assays:
[1] = molecular target: T1, Hs_FPR1 (Homo sapiens, UniProt P21462); test: Competition binding of fluorescent WKYMVm, flow cytometry; conditions: mean, ND = no competition observed; for Log IC50 (M): log of IC50, competition with 10 nM K(5/6-FAM)-WKYMVm, HEK293 stable cells, on ice 90 min; for Max Comp (%): maximum proportion of competition with 10 nM K(5/6-FAM)-WKYMVm
T1 construct: expressed in transfected cells
T1 sequence (P21462 1-350): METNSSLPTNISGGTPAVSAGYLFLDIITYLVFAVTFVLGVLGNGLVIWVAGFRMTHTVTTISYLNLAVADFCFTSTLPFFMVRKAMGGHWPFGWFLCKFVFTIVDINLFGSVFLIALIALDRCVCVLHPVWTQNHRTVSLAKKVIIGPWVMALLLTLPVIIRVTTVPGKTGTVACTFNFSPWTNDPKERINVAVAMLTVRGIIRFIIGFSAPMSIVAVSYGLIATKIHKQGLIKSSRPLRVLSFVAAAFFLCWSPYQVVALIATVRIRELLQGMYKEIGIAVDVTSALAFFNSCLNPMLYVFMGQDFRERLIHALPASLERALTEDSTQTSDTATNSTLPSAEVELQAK
Method: (§1) Mean cell fluorescence was then measured for 5000 cells by flow cytometry using either a BD FACScalibur or BD Attune.
(§2) All data were analyzed using GraphPad Prism using the nonlinear regression log(agonist) versus response (3 parameters) function for all assays, except binding, which was analyzed using the One site-FitlogIC50 function. Bias calculations were carried out following IUPHAR guidelines as described,[27]^,[37] and data were presented as the Δ Activity ratio (Log[EmaxB/EC50B])-(Log[EmaxA/EC50A]).

[2] = molecular target: T2, Hs_FPR2 (Homo sapiens, UniProt P25090); test: as above; conditions: for Log IC50 (M): log of IC50, competition with 10 nM K(5/6-FAM)-WKYMVm, HEK293 stable cells, on ice 90 min; for Log IC50 (M) / Max Comp (%): mean, ND = no competition observed; for Max Comp (%): maximum proportion of competition with 10 nM K(5/6-FAM)-WKYMVm
T2 construct: expressed in transfected cells
T2 sequence (P25090 1-351): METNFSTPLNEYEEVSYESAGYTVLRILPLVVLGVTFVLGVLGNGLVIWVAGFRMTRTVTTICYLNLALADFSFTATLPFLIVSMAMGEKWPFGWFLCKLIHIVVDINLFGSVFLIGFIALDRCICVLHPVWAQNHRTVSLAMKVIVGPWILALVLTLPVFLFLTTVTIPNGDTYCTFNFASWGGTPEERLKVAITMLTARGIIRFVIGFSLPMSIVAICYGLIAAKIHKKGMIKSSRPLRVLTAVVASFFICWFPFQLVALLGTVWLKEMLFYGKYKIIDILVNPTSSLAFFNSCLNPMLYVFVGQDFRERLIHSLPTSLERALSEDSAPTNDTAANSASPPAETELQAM
Method: as §1, §2

[3] = molecular target: T3, Mm_Fpr1 (Mus musculus, UniProt P33766); test: as above; conditions: for Log IC50 (M): log of IC50, competition with 10 nM K(5/6-FAM)-WKYMVm, HEK293 stable cells, on ice 90 min; for Log IC50 (M) / Max Comp (%): mean, ND = no competition observed; for Max Comp (%): maximum proportion of competition with 10 nM K(5/6-FAM)-WKYMVm
T3 construct: expressed in transfected cells
T3 sequence (P33766 1-364): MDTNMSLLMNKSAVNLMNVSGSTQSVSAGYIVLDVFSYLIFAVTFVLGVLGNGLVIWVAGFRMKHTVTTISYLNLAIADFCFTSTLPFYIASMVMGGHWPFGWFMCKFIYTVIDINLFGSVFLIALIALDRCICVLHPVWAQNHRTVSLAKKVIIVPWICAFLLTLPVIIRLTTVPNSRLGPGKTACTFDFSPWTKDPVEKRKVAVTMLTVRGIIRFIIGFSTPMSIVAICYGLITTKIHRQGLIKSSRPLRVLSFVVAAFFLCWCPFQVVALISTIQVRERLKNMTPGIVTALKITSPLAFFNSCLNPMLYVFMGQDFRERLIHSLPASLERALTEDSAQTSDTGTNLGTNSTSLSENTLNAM
Method: as §1, §2

[4] = molecular target: T4, Mm_Fpr2 (Mus musculus, UniProt O88536); test: as above; conditions: for Log IC50 (M): log of IC50, competition with 10 nM K(5/6-FAM)-WKYMVm, HEK293 stable cells, on ice 90 min; for Log IC50 (M) / Max Comp (%): mean, ND = no competition observed; for Max Comp (%): maximum proportion of competition with 10 nM K(5/6-FAM)-WKYMVm
T4 construct: expressed in transfected cells
T4 sequence (O88536 1-351): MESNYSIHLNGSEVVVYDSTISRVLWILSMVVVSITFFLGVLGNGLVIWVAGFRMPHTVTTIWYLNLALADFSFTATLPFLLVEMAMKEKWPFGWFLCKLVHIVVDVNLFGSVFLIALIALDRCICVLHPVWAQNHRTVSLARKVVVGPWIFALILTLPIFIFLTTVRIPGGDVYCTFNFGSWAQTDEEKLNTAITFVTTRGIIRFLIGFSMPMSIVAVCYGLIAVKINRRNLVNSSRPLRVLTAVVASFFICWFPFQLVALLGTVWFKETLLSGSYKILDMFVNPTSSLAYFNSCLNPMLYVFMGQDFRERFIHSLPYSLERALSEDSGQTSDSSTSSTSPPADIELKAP
Method: as §1, §2

[5] = molecular target: T1, Hs_FPR1; test: BRET receptor-RLuc8 interaction with Venus-mGsi; format: cell-based; conditions: for Log EC50 (M): log of EC50, HEK293 transient, 10 min; for Log EC50 (M) / Emax (%): mGsi BRET, mean, ND = no interaction detected; for Emax (%): % of response to 1 μM WKYMVm
Outline: (§3)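 Cells were transiently cotransfected with C-terminal RLuc8-tagged FPR and Venus-mGsi or YFP-Arrestin 3 (1:4), then replated at 24 h and cultured a further 24–48 h. After 30 min in HBSS, coelenterazine h (5 μM final) was added 5 min before compound, with a 10 min incubation at 37 °C. Background-subtracted acceptor/donor ratio (N-BRET) was fitted by 3-parameter log(agonist) regression.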

[6] = molecular target: T1, Hs_FPR1; test: ERK1/2 phosphorylation by Western blotting; format: cell-based; conditions: mean, ND = no pERK signal detected; for Emax (%): phospho-ERK, % of 1 μM WKYMVm
[7] = molecular target: T2, Hs_FPR2; test: ERK1/2 phosphorylation by Western blotting; format: cell-based; conditions: for Emax (%): phospho-ERK, % of 1 μM WKYMVm
[8] = molecular target: T4, Mm_Fpr2; test: ERK1/2 phosphorylation by Western blotting; format: cell-based; conditions: for Emax (%): phospho-ERK, % of 1 μM WKYMVm
[9] = molecular target: T1, Hs_FPR1; test: BRET receptor-RLuc8 interaction with Arrestin 3-YFP; format: cell-based; conditions: for Emax (%) / Log EC50 (M): Arrestin 3 BRET, mean, ND = no interaction detected; for Emax (%): % of response to 1 μM WKYMVm; for Log EC50 (M): log of EC50, HEK293 transient, 10 min
Outline: as §3

[10] = molecular target: T3, Mm_Fpr1; test: as above; format: cell-based; conditions: for Emax (%) / Log EC50 (M): Arrestin 3 BRET, mean, ND = no interaction detected; for Emax (%): % of response to 1 μM WKYMVm; for Log EC50 (M): log of EC50, HEK293 transient, 10 min
Outline: as §3

[11] = molecular target: T4, Mm_Fpr2; test: as above; format: cell-based; conditions: for Emax (%) / Log EC50 (M): Arrestin 3 BRET, mean, ND = no interaction detected; for Emax (%): % of response to 1 μM WKYMVm; for Log EC50 (M): log of EC50, HEK293 transient, 10 min
Outline: as §3

[12] = log of EC50, phosphorylation of ERK1/2, HEK293 stable cells
[13] = log of EC50, phosphorylation of ERK1/2, HEK293 stable cells, mean, ND = no pERK signal detected
[14] = mean, ND = no pERK signal detected

Log IC50 (M) [1] | Max Comp (%) [1] | Log IC50 (M) [2] | Max Comp (%) [2] | Log IC50 (M) [3] | Max Comp (%) [3] | Log IC50 (M) [4] | Max Comp (%) [4] | Log EC50 (M) [5] | Emax (%) [5] | Log EC50 (M) [6, 12] | Emax (%) [6] | Log EC50 (M) [7, 13] | Emax (%) [7, 14] | Log EC50 (M) [8, 13] | Emax (%) [8, 14] | Emax (%) [9] | Log EC50 (M) [9] | Emax (%) [10] | Log EC50 (M) [10] | SMILES | further results
−5.265 M | 80.70% | −7.434 M | 94.77% | −7.070 M | 25.96% | −7.192 M | 80.31% | −6.47 M | 60.56% | −7.37 M | 112.1% | −7.723 M | 81.57% | −8.394 M | 136.1% | 86.48% | −6.00 M | 52.62% | −5.98 M | Cc1cccc(-c2oc(C)nc2C(=O)Nc2cnn(Cc3nc(C(C)(F)F)co3)n2)c1 [ACT-389949] | Emax (%) [11]: 95.34%; Log EC50 (M) [11]: −7.66 M
 |  |  | 60.14% |  | 37.54% |  | 78.55% |  |  |  |  |  |  |  |  |  |  |  |  | COc1cc(F)c([C@@H]2CNC(=O)[C@H]2NC(=O)Nc2ccccc2)c(F)c1 [BMS-986235] | IC50 [2]: 2440 nM; competition with K(5/6-FAM)-WKYMVm ([2]; at 10 μM, incomplete competition): ~50%; IC50 [3]: 1120 nM; IC50 [4]: 72.6 nM; EC50 [5]: 2240 nM; Emax [5]: 7.4%; EC50 [6, 12]: 16200 nM; Emax [7]: 116%; EC50 [7, 13]: 679 nM; Emax [8]: 116%; EC50 [8, 13]: 3.78 nM; EC50 [9]: 2290 nM; Emax [9]: 5.54%; EC50 [10]: 6.76 nM; Emax [10]: 18.2%; efficacy, % of WKYMVm ([10]; Mm_Fpr1, mGsi versus Arrestin3 bias comparison): < 20%; EC50 [11]: 151 nM; Emax [11]: 100%
−7.943 M | 9.96% | −7.399 M | 13.23% | −6.114 M | 52.13% | −7.98 M | 27.99% | −5.34 M | 17.60% | −5.86 M | 92.57% | −5.882 M | 101.7% | −4.94 M | 381.2% | 17.25% | −5.35 M | 49.50% | −6.33 M | CCCCOc1ccc(C(=O)NN2C(=O)c3ccccc3NC2c2ccc(OC)cc2)cc1 (centres unmarked) [QuinC1] | Emax (%) [11]: 68.75%; Log EC50 (M) [11]: −6.40 M
